Laboratory results taken from BindingDB's records for doi:10.1021/jm011007+ (University of Perugia, 2002).
Where “and” joins values, the source holds several entries; their conditions need not be identical. Equal values may be shown once.

Legend:
[1] = molecular target: Sodium-dependent serotonin transporter (Homo sapiens, UniProt P31645); assay: Inhibition of [125I]RTI-55 binding to human SERT in clonal cells
[2] = molecular target: Sodium-dependent dopamine transporter (Homo sapiens, UniProt Q01959); assay: Inhibition of radioligand [125I]RTI-55 binding to human Dopamine transporter in clonal cells
Sodium-dependent dopamine transporter, sequence (Q01959 whole entry): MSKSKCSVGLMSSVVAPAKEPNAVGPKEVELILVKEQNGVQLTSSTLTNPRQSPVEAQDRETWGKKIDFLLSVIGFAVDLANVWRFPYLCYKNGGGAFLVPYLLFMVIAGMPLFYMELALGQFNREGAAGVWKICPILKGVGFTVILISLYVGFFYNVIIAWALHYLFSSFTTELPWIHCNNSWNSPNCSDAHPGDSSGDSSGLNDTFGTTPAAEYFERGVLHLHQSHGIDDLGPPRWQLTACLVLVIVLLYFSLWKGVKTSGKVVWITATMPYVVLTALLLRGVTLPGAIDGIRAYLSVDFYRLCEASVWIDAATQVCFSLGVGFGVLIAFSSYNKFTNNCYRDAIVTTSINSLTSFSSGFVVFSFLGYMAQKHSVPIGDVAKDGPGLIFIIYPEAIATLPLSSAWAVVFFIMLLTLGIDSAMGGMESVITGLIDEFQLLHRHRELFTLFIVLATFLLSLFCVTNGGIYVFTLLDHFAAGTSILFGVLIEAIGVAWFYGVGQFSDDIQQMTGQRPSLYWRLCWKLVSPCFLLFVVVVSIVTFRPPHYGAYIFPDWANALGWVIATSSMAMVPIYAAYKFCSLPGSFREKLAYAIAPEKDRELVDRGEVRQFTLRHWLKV

Sodium-dependent serotonin transporter, sequence (P31645 whole entry): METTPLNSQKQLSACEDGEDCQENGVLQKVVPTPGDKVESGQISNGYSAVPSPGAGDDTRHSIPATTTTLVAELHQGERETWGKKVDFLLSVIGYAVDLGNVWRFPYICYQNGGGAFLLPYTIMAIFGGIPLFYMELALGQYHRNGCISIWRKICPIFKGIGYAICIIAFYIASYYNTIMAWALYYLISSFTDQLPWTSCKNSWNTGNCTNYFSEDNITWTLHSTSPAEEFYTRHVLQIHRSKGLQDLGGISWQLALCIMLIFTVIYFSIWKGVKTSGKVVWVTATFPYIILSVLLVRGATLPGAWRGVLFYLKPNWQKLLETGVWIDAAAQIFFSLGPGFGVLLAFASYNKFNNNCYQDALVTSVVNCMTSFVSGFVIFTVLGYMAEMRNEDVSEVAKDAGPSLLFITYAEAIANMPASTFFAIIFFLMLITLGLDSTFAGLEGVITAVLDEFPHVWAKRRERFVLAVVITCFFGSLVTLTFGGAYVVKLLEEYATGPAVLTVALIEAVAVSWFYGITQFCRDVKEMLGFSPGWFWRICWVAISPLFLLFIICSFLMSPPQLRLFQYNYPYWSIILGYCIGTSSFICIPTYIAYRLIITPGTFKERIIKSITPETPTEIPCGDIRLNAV

Row | SMILES | Kd [1] | Kd [2]
1 | Fc1ccc(C(OCCN2CCN(C/C=C/c3ccccc3)CC2)c2ccc(F)cc2)cc1 | 954 nM and 363 nM | 
2 | Fc1ccc(CN(CCCN2CCN(CCCc3ccccc3)CC2)c2ccccn2)cc1 | 282 nM | 11 nM
3 | COc1ccc(OC)c(/C=C/CN2CCN(CCOC(c3ccc(F)cc3)c3ccc(F)cc3)CC2)c1 | 182 nM | 3.8 nM
4 | Fc1ccc(C(OCCN2CCN(C/C=C/Cc3ccccc3)CC2)c2ccc(F)cc2)cc1 | 72 nM | 5.1 nM
5 | c1ccc(CCCN2CCN(CCCN(Cc3ccccc3)c3ccccc3)CC2)cc1 | 759 nM and 758 nM | 10 nM
6 | Fc1ccc(CCCN2CCN(CCOC(c3ccccc3)c3ccc(F)cc3)CC2)cc1 (stereo unspecified) | 468 nM | 31 nM
7 | COc1ccc(N(CCN2CCN(CCCc3ccccc3)CC2)Cc2ccccc2)cc1 | 257 nM | 912 nM
8 | COc1ccc(C(OCCN2CCN(C/C=C/c3ccccc3)CC2)c2ccccc2)cc1 (stereo unspecified) | 692 nM | 
9 | COc1ccc(CN(CCN2CCN(C/C=C/c3ccccc3)CC2)c2ccccn2)cc1 | 229 nM | 2190 nM
10 | O=C(/C=C/c1ccccc1Cl)N1CCN(CCOC(c2ccc(F)cc2)c2ccc(F)cc2)CC1 | 170 nM | 724 nM
11 | COc1ccc(CN(CCCN2CCN(CCCc3ccccc3)CC2)c2ccccn2)cc1 | 59 nM | 16 nM
12 | O=C(/C=C/c1c(Cl)cccc1Cl)N1CCN(CCOC(c2ccc(F)cc2)c2ccc(F)cc2)CC1 | 209 nM | 1510 nM
13 | Cc1ccc(CN(CCN2CCN(CCCc3ccccc3)CC2)c2ccccc2)cc1 | 813 nM | 427 nM
14 | COc1ccc(OC)c(/C=C/C(=O)N2CCN(CCOC(c3ccc(F)cc3)c3ccc(F)cc3)CC2)c1 | 204 nM | 562 nM
15 | Fc1ccc(/C=C/CN2CCN(CCOC(c3ccccc3)c3ccccc3)CC2)cc1 | 1320 nM | 16 nM
16 | Fc1ccc(CCCN2CCN(CCOC(c3ccc(F)cc3)c3ccc(F)cc3)CC2)cc1 | 363 nM | 5.6 nM
17 | c1ccc(CCCN2CCN(CCN(Cc3ccccc3)c3ccccc3)CC2)cc1 | 1200 nM | 219 nM
18 | Fc1ccc(CCCN2CCN(CCOC(c3ccccc3)c3ccccc3)CC2)cc1 | 1820 nM | 40 nM
19 | Fc1ccc(CN(CCN2CCN(CCCc3ccccc3)CC2)c2ccc(F)cc2)cc1 | 269 nM | 52 nM
20 | Cc1ccc(C(OCCN2CCN(C/C=C/c3ccccc3)CC2)c2ccccc2)cc1 (stereo unspecified) | 1120 nM | 112 nM
21 | Fc1ccc(/C=C/CN2CCN(CCOC(c3ccccc3)c3ccc(F)cc3)CC2)cc1 (stereo unspecified) | 200 nM | 23 nM
22 | Cc1ccc(/C=C/CN2CCN(CCOC(c3ccc(F)cc3)c3ccc(F)cc3)CC2)cc1 | 661 nM | 48 nM
23 | O=C(CCCCN1CCN(CCCc2ccccc2)CC1)N(Cc1ccccc1)c1ccccc1 | 204 nM | 58 nM
24 | c1ccc(CCCN2CCN(CCCCCN(Cc3ccccc3)c3ccccc3)CC2)cc1 | 234 nM | 32 nM
25 | Fc1ccc(C(OCCN2CCN(C/C=C/c3ccccc3)CC2)c2ccc(Cl)cc2Cl)cc1 (stereo unspecified) | 525 nM | 66 nM
26 | c1ccc(CCCN2CCN(CCCN(Cc3ccccc3)c3ccccn3)CC2)cc1 | 2290 nM | 107 nM

Row | SMILES | Kd [1] | Kd [2]
27 | c1ccc(CCCN2CCN(CCCCN(Cc3ccccc3)c3ccccc3)CC2)cc1 | 132 nM | 14 nM
28 | CN(CCc1ccccc1)CCN1CCN(CCCc2ccccc2)CC1 | 2630 nM | 550 nM
29 | COc1ccc(CN(CCN2CCN(CCCc3ccccc3)CC2)c2ccccn2)cc1 | 162 nM | 219 nM
30 | O=C(/C=C/c1ccc(Cl)cc1)N1CCN(CCOC(c2ccc(F)cc2)c2ccc(F)cc2)CC1 | 72 nM | 427 nM
31 | Cc1ccc(/C=C/C(=O)N2CCN(CCOC(c3ccc(F)cc3)c3ccc(F)cc3)CC2)cc1 | 195 nM | 794 nM
32 | O=C(CCCN1CCN(CCCc2ccccc2)CC1)N(Cc1ccccc1)c1ccccc1 | 525 nM | 28 nM
33 | Fc1ccc(C(OCCN2CCN(C/C=C/c3ccc(Cl)cc3)CC2)c2ccc(F)cc2)cc1 | 813 nM | 22 nM
34 | Fc1ccc(C(OCCN2CCN(C/C=C/c3ccccc3)CC2)c2ccc(Cl)cc2)cc1 (stereo unspecified) | 191 nM | 3.9 nM
35 | COc1ccc(N(CCN2CCN(C/C=C/c3ccccc3)CC2)Cc2ccccc2)cc1 | 282 nM | 
36 | Fc1ccc(C(OCCN2CCN(C/C=C/c3ccccc3)CC2)c2ccccc2)cc1 (stereo unspecified) | 214 nM | 33 nM
37 | Brc1ccc(CN(CCN2CCN(CCCc3ccccc3)CC2)c2ccc(Br)cc2)cc1 | 1620 nM | 977 nM
38 | C(=C\c1ccccc1)/CN1CCN(CCN(Cc2ccccc2)c2ccccc2)CC1 | 603 nM | 447 nM
39 | Fc1ccc(CN(CCN2CCN(CCCc3ccccc3)CC2)c2ccccn2)cc1 | 229 nM | 65 nM
40 | COc1cccc(C(OCCN2CCN(C/C=C/c3ccccc3)CC2)c2cccc(Br)c2)c1 (stereo unspecified) | 741 nM | 132 nM
41 | Fc1ccc(/C=C/CN2CCN(CCOC(c3ccc(F)cc3)c3ccc(F)cc3)CC2)cc1 | 229 nM | 3.9 nM
42 | c1ccc(CCCN2CCN(CCN(Cc3ccccc3)c3ccccn3)CC2)cc1 | 525 nM | 91 nM
43 | C(=C\c1ccccc1)/CN1CCN(CCN(Cc2ccccc2)c2ccccn2)CC1 | 676 nM | 1000 nM
44 | Fc1ccc(CN(CCCN2CCN(CCCc3ccccc3)CC2)c2ccc(F)cc2)cc1 | 331 nM | 14 nM
45 | O=C(CN1CCN(CCCc2ccccc2)CC1)N(Cc1ccccc1)c1ccccc1 | 2880 nM | 1070 nM
46 | Fc1ccc(C(OCCN2CCN(CCCc3ccccc3)CC2)c2ccccc2)cc1 (stereo unspecified) | 617 nM | 20 nM
47 | COc1ccc(/C=C/C(=O)N2CCN(CCOC(c3ccc(F)cc3)c3ccc(F)cc3)CC2)cc1 | 141 nM | 490 nM
48 | Fc1ccc(C(OCCN2CCN(Cc3ccccc3)CC2)c2ccc(F)cc2)cc1 | 182 nM | 98 nM
49 | Fc1ccc(C(OCCN2CCN(CCCc3ccc(Cl)cc3)CC2)c2ccc(F)cc2)cc1 | 155 nM | 8.1 nM
50 | Clc1ccc(C(OCCN2CCN(C/C=C/c3ccccc3)CC2)c2ccc(Cl)cc2)cc1 | 331 nM | 38 nM
51 | O=C(CCCN1CCN(CCCc2ccccc2)CC1)N(Cc1ccccc1)c1ccccn1 | 1320 nM | 562 nM
52 | COc1ccc(/C=C/CN2CCN(CCOC(c3ccc(F)cc3)c3ccc(F)cc3)CC2)cc1 [1-{2-[Bis-(4-fluoro-phenyl)-methoxy]-ethyl}-4-[(E)-3-(4-methoxy-phenyl)-allyl]-piperazine] | 372 nM | 65 nM
